From ChEMBL document CHEMBL1201862, “PubChem BioAssay data set” (2004)
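A five-concentration, 48-hour dose response in 96-well plates underlies each endpoint, interpolated linearly between surrounding concentrations. The concentration for 50% growth inhibition is given as GI50.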 Activity calls are given as the source filed them. Cut-off read from the data, not from the text of the source: active = GI50 up to about 1.1 µM and inactive = higher.

Key:
Assay in all cases: DTP human tumour cell line panel, 48 h
UACC-257 = tested on: UACC-257
CCRF-CEM = tested on: CCRF-CEM
OVCAR-4 = tested on: OVCAR-4
T47D = tested on: T47D
HOP-62 = tested on: HOP-62
MDA-MB-231 = tested on: MDA-MB-231
K562 = tested on: K562
Hs-578T = tested on: Hs-578T
PC-3 = tested on: PC-3
OVCAR-5 = tested on: OVCAR-5
HOP-92 = tested on: HOP-92
MCF7 = tested on: MCF7
OVCAR-3 = tested on: OVCAR-3
MDA-N = tested on: MDA-N
BT-549 = tested on: BT-549
Malme-3M = tested on: Malme-3M

Measured: GI50

CC(=O)O[C@H]1CN(S(=O)(=O)c2ccc(C)cc2)C[C@@H]1C1CCCCC1
inactive: UACC-257 18 µM | CCRF-CEM 37.5 µM | OVCAR-4 31.9 µM | T47D 40.6 µM | HOP-62 35.8 µM | MDA-MB-231 51.4 µM | K562 32.9 µM | Hs-578T 18.9 µM | PC-3 20.1 µM | OVCAR-5 39 µM | HOP-92 23.2 µM | MCF7 20.8 µM | OVCAR-3 18 µM | MDA-N 25.5 µM

CSc1nn(C)cc2ncnc1-2
inactive: UACC-257 > 100 µM | CCRF-CEM > 100 µM | T47D > 100 µM | HOP-62 > 100 µM | MDA-MB-231 > 100 µM | K562 > 100 µM | Hs-578T > 100 µM | PC-3 > 100 µM | OVCAR-5 > 100 µM | MCF7 > 100 µM | OVCAR-3 > 100 µM | BT-549 > 100 µM | MDA-N > 100 µM

O=C(CCC1OCCO1)Nc1cc(NCc2ccccc2)ccc1OCc1ccccc1
inactive: UACC-257 20.2 µM | CCRF-CEM 17 µM | OVCAR-4 31.8 µM | T47D 69.5 µM | HOP-62 > 100 µM | MDA-MB-231 42 µM | K562 28.9 µM | Hs-578T 34.3 µM | OVCAR-5 46.9 µM | HOP-92 17.8 µM | MCF7 33.6 µM | Malme-3M 20.6 µM | BT-549 38.5 µM

O=C1CCCN1C(=O)CS(=O)(=O)c1ccccc1
inactive: UACC-257 > 100 µM | CCRF-CEM > 100 µM | OVCAR-4 > 100 µM | T47D > 100 µM | HOP-62 > 100 µM | MDA-MB-231 > 100 µM | K562 > 100 µM | Hs-578T > 100 µM | PC-3 > 100 µM | OVCAR-5 > 100 µM | HOP-92 > 100 µM | Malme-3M > 100 µM | OVCAR-3 > 100 µM | BT-549 > 100 µM | MDA-N > 100 µM

Cc1cccc(C)c1NC(=O)/C(Cc1nc2ccc([N+](=O)[O-])cc2nc1O)=N\NC(N)=O
inactive: UACC-257 > 100 µM | CCRF-CEM 19.6 µM | OVCAR-4 90.6 µM | T47D > 100 µM | MDA-MB-231 > 100 µM | K562 39.7 µM | Hs-578T > 100 µM | PC-3 66.5 µM | OVCAR-5 > 100 µM | HOP-92 57.8 µM | MCF7 63.1 µM | Malme-3M > 100 µM | OVCAR-3 > 100 µM | BT-549 7.19 µM

COc1ccc(/C=N/NC(=O)c2ccccc2Nc2ccccc2C(=O)N/N=C/c2ccc(OC)cc2)cc1
inactive: UACC-257 > 100 µM | CCRF-CEM > 100 µM | OVCAR-4 > 100 µM | T47D > 100 µM | HOP-62 > 100 µM | MDA-MB-231 65.6 µM | K562 > 100 µM | PC-3 > 100 µM | OVCAR-5 > 100 µM | HOP-92 > 100 µM | MCF7 > 100 µM | Malme-3M > 100 µM | OVCAR-3 > 100 µM | BT-549 > 100 µM | MDA-N > 100 µM

O=C1c2ccccc2-c2ccc(O)cc21
inactive: UACC-257 19.6 µM | OVCAR-4 20.7 µM | T47D 18.4 µM | HOP-62 36.4 µM | MDA-MB-231 16.9 µM | K562 31.4 µM | Hs-578T 33.6 µM | PC-3 17.2 µM | OVCAR-5 26.7 µM | MCF7 21.2 µM | Malme-3M 23.4 µM

C=C(C)CCC1CC=[N+]([O-])OC1C(C)(C)C (configuration not stated)
inactive: UACC-257 58.6 µM | CCRF-CEM 11.4 µM | T47D 20.7 µM | HOP-62 79.3 µM | MDA-MB-231 26.8 µM | K562 > 100 µM | Hs-578T 36.6 µM | OVCAR-5 > 100 µM | HOP-92 > 100 µM | MCF7 15.5 µM | OVCAR-3 66.1 µM | MDA-N 42.3 µM
